From paper PMC11881452, “Inactivation of NLRP3 inflammasome by dephosphorylation at Serine 658 alleviates glial inflammation in the mouse model of Parkinson’s disease” (Molecular Neurodegeneration, 2025)

Tests used:
NLRP3 [1] = target: T1, NLRP3 (Homo sapiens, UniProt Q96P20); assay: SPR, NLRP3 immobilized on CM5 chip, […] binding model; design: Recombinant human NLRP3 protein (CUSBIO, #CSB-EP822275HU3)
Target sequence in this assay (Q96P20 whole entry): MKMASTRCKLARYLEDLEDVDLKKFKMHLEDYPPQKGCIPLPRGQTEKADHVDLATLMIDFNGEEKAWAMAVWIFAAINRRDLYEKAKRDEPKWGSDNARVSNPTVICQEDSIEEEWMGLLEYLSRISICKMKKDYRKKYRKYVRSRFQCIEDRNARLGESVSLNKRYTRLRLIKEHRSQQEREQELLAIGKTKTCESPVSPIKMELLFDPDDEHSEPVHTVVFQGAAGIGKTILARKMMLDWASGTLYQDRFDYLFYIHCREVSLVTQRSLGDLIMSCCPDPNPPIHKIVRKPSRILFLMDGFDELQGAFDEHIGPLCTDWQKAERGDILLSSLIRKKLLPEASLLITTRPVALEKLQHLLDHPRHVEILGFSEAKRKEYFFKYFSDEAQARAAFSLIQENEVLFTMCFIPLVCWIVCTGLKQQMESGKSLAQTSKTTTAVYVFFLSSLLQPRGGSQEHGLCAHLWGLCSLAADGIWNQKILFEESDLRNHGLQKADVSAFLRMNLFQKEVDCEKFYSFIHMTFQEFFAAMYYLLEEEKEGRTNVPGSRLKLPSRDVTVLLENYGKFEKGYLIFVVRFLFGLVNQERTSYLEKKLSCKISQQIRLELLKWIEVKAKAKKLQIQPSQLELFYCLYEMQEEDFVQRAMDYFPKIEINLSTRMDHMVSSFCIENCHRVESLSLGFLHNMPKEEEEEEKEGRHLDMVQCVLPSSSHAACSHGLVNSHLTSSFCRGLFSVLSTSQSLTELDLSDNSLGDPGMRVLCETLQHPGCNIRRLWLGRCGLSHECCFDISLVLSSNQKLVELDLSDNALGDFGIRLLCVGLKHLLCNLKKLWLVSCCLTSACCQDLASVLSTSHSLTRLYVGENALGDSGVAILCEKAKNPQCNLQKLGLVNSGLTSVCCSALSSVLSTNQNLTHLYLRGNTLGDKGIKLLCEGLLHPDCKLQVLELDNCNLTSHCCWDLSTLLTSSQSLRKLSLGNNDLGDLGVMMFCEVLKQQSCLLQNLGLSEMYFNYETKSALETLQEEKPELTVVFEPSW

NLRP3 [2] = target: T1, NLRP3; assay: streptavidin pull-down from HEK-293T lysates, Western blot; type: cell-based; design: Flag-NLRP3; Flag-NLRP3 (NACHT: 220-536aa); Flag-NLRP3 (LRR: 742-991aa)
Target sequence in this assay (Q96P20 220-536): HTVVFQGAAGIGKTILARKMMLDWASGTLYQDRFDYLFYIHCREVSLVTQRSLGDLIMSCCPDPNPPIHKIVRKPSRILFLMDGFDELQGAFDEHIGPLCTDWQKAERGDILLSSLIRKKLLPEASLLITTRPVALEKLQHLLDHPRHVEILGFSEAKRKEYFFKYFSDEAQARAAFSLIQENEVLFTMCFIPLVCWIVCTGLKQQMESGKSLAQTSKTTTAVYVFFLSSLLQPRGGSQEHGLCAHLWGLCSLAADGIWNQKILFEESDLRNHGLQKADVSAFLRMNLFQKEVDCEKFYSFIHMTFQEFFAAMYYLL

Structure (SMILES) | Kd (NLRP3 [1]) | streptavidin pull-down from HEK-293T lysates, Western blot (NLRP3 [2])
O=c1ccc2cc3ccoc3cc2o1 [S4737, Psoralen] | 209 µM | –
O=C1N[C@H]2[C@H](CS[C@H]2CCCCC(=O)Oc2c3occc3cc3ccc(=O)oc23)N1 [Biotinylated-Psoralen] | – | Streptavidin pull-down assays showed that Bio-Pso specifically bound to the NACHT and LRR domains, but not the PYD domain
O=c1c2ccccc2nc2n1CCc1c-2[nH]c2ccccc12 [S2349] | 146 µM | –
